{"source": "patent US20020183684A1", "about": "“Electroporation-enhanced inhibition of vascular neointimal hyperplasia” (GENETRONICS, priority 1996, published 2002)", "key": {"porcine artery": {"test_system": "porcine artery", "settings": "cited from earlier work"}, "[1]": {"test_system": "balloon injured rat carotid arteries (neointimal hyperplasia)", "test": "Balloon injury of rat carotid arteries, local heparin delivery with or without electroporation, arterial morphometry at day 28", "type": "in vivo", "settings": "for Active lumen area / Intimal wall thickness / Mean intimal area / Medial area / Intima/media thickness ratio: day 28, mean ± SEM; for Neointima formation (in words): 28 days", "experimental": "Mature adult male Sprague-Dawley rats (Harlan, San Diego, Calif.) with an average body weight of 423.8±8.6 (SEM) gm were housed in individual cages in light-dark cycled, temperature-controlled rooms. Standard laboratory chow and water were available ad lib. After a minimum of 7 days acclimatization, the rats were anesthetized with an intramuscular injection of ketamine, 90 mg/kg (Phoenix, St. Joseph, Mo.) and xylazine, 15 mg/kg (Fermenta, Kansas City, Mo.). After anesthesia, they were strapped supine on a surgical table with body temperature maintained at 37° C. using a thermostatic blanket. The animals breathed spontaneously and Lead II electrocardiogram was monitored throughout the experiment. […] All procedures conformed to the guiding principles of the American Physiological Society and Institutional Animal Care and Use Committee (Department of Health and Human Services, National Institutes of Health).\nNeointimal hyperplasia in rats was induced by a technique described earlier by Clowes et al. (A. W. Clowes and M. M. Clowes, supra). Briefly, the left and right common carotid arteries (CCA) were isolated through cervical incision. After isolation of the arteries, the left CCA at the thoracic entry point was temporarily clamped with a bulldog clip. The right CCA served as a control artery and was not surgically manipulated. The left CCA was catheterized through a proximal incision at the junction of the internal and external carotid arteries with a 2F Fogarty embolectomy catheter (Baxter Healthcare Corporation, Irvine, Calif.). The catheter was advanced to the distal CCA, inflated with 0.3 ml of ambient air for 30 sec each time, and retracted to the internal carotid-external carotid junction three times, with one rotation after each passage to ensure uniform injury of the arterial wall. The Fogarty catheter was then withdrawn and exchanged for a porous balloon electroporation (PBE) catheter.\nThe PBE catheter (manufactured by Danforth Biomedical, Santa Clara, Calif. as per design provided by Genetronics, Inc., San Diego, Calif.) is comprised of a 2F, triple-lumen shaft with a porous 1.5 cm long PET balloon at the distal end. Catheter lumens are used for passage of a 0.014″ guide wire for balloon inflation and deflation and as a conduit for the lead to the central electrode inside the balloon. The balloon has an inflated diameter of 1.4 mm, with four rows of 7 holes each (nominal hole size: 15-25 μm). The balloon serves as a reservoir for the heparin-containing composition. The central electrode inside the balloon is a coiled silver wire wrapped tightly and densely around the catheter shaft, over a length of approximately 10 mm. This balloon electrode acts as the cathode and the inserted guidewire as the anode. The distance between the distal end of the balloon electrode and the proximal end of the bare zone of the conductive guidewire was 4 mm (FIG. 9).\nFollowing balloon catheter injury of the left CCA, rats were divided into three groups. Groupl received local intracarotid delivery of heparin (Elkins-Sinn, Cherry Hill, N.J.), but no electrical pulsing (positive untreated test: H+E−; H stands for heparin and E for electrical pulsing; + or − designate […] of H or E, respectively). Group 2 received a sequence of four electroporative pulses in the presence of heparin (positive treated test: H+E+). The uninjured right CCA of all animals comprised Group 3 which received neither drug nor electrical pulses and served as negative untreated control (H−E−).\nImmediately following balloon injury of the vessel, a PBE catheter was introduced into the injured portion of the left CCA after placement of a temporary clip at the distal end of the balloon injured segment. Heparin (200 IU in 0.1 ml) (Elkins-Sinn) was delivered through the balloon pores into the arterial wall over a period of approx. 20 seconds. […]"}, "porcine carotid artery": {"test_system": "porcine carotid artery", "settings": "pig, in vivo; cited from earlier work"}, "[2]": {"settings": "Group 2 H+E+ Inj+, with electroporation"}}, "note": "“Also recorded” adds a separate entry of the source.", "data": [{"substance": "heparin", "values": [{"measurement": "Fraction of drug washed out", "setting": "porcine artery; approximately 1 hour after iontophoretic delivery", "value": 96, "unit": "%"}, {"measurement": "Concentration remaining in the vessel, IO versus passive delivery", "setting": "porcine artery; heparin 1000 U to 20,000 U/ml", "value": "greater concentrations remaining in the vessel"}, {"measurement": "Safety of iontophoretic delivery", "setting": "porcine artery; heparin 1000 U/ml, coronary angiography, blood pressure, cardiac rhythm", "value": "safe and well tolerated"}, {"measurement": "Platelet deposition", "setting": "porcine artery; pig balloon injury model, following IO delivery", "value": "reduced"}, {"measurement": "Active lumen area", "setting": "[1]; Group 1 H+E− Inj+, no pulsing", "value": 0.295, "unit": "sq. mm"}, {"measurement": "Intimal wall thickness", "setting": "[1]; Group 1 H+E− Inj+, no pulsing", "value": 541, "unit": "μm"}, {"measurement": "Mean intimal area", "setting": "[1]; Group 1 H+E− Inj+, no pulsing", "value": 0.778, "unit": "sq. mm"}, {"measurement": "Medial area", "setting": "[1]; Group 1 H+E− Inj+, no pulsing", "value": 0.254, "unit": "sq. mm"}, {"measurement": "Intima/media thickness ratio", "setting": "[1]; Group 1 H+E− Inj+: heparin 200 IU local, no electrical pulsing", "value": 2.96}, {"measurement": "Active lumen area", "setting": "[1]; [2]", "value": 0.902, "unit": "sq. mm"}, {"measurement": "Intimal wall thickness", "setting": "[1]; [2]", "value": 26.10, "unit": "μm"}, {"measurement": "Mean intimal area", "setting": "[1]; [2]", "value": 0.067, "unit": "sq. mm"}, {"measurement": "Medial area", "setting": "[1]; [2]", "value": 0.338, "unit": "sq. mm"}, {"measurement": "Intima/media thickness ratio", "setting": "[1]; Group 2 H+E+ Inj+: heparin 200 IU local plus 4 pulses 100 V 20 ms", "value": 0.25}, {"measurement": "Slope of linear regression, active lumen area versus IEL area", "setting": "[1]; H+E+ group", "value": 0.57}, {"measurement": "Neointima formation (in words)", "setting": "[1]; H+E+: heparinized, electroporated balloon injured arteries, versus H+E−", "value": "significant reduction in the volume of neointima; also recorded: vastly reduced neointimal thickness; also recorded: strong reduction in the formation of neointimal volume"}, {"measurement": "Slope of linear regression, active lumen area versus IEL area", "setting": "[1]; H+E− group", "value": 0.17}, {"measurement": "Neointima formation (in words)", "setting": "[1]; H+E−: heparinized, non-electroporated balloon injured arteries", "value": "marked proliferation of neointima; also recorded: pronounced neointima formation"}, {"measurement": "Pre-sacrificial electrocardiogram (Lead II)", "setting": "[1]; all groups", "value": "did not reveal any rhythm abnormality"}, {"measurement": "Period of inhibition of neointimal growth and favorable remodeling", "setting": "[1]; electroporation-enhanced delivery of heparin", "value": "at least 28 days"}, {"measurement": "Tolerability of surgery and arterial electroporation", "setting": "[1]; rats, behavior and weight", "value": "tolerated the surgery and arterial electroporation well"}]}, {"substance": "hirudin", "values": [{"measurement": "Fraction of drug washed out", "setting": "porcine carotid artery", "value": 80, "unit": "%"}, {"measurement": "Level in the artery", "setting": "porcine carotid artery", "value": "the same as for passive delivery"}]}]}
